Source: article PMC5146859, “Phase 1/2 study of pacritinib, a next generation JAK2/FLT3 inhibitor, in myelofibrosis or other myeloid malignancies” (Journal of Hematology & Oncology, 2016)

Columns and labels:
[1] = test system: patients with advanced myeloid malignancies (MF, AML); assay: Phase 1 clinical benefit rate (IWG criteria); assay type: in vivo, human
Protocol: At screening/baseline, patients underwent a medical history, physical examination, vital sign assessment, ECOG PS assessment, electrocardiogram, and assessment of hematologic parameters and blood chemistry. Hematology/blood chemistry, physical examinations, and vital sign assessments were performed throughout treatment. Toxicity was assessed using the National Cancer Institute Common Terminology Criteria for Adverse Events (NCIC-CTCAE), version 3.0, with relationship to treatment assigned by the investigator and were recorded from the first dose of pacritinib until 30 days after the last dose. Bone marrow biopsy and/or aspirate samples were drawn at baseline, on day 1 of cycle 4 and cycle 10, as clinically indicated, and at the termination visit. Disease response and progression were determined using the relevant International Working Group (IWG) criteria. The primary objective of phase 1 was to establish the MTD of pacritinib in patients with advanced myeloid malignancies, defined as the highest dose level at which no more than one out of six patients in the cohort experienced a DLT during cycle 1 ([…]) of therapy. […] Secondary objectives in phase 1 of the study included safety and PK analysis. Clinical benefit rate was assessed as an exploratory endpoint, defined as the proportion of patients who experienced a complete response, partial response, clinical improvement, or stable disease (SD) during the study.

[2] = test system: patients with MF; assay: Phase 2 safety: adverse events, serious adverse events and deaths; assay type: in vivo, human
Protocol: At screening/baseline, patients underwent a medical history, physical examination, vital sign assessment, ECOG PS assessment, electrocardiogram, and assessment of hematologic parameters and blood chemistry. Hematology/blood chemistry, physical examinations, and vital sign assessments were performed throughout treatment. Toxicity was assessed using the National Cancer Institute Common Terminology Criteria for Adverse Events (NCIC-CTCAE), version 3.0, with relationship to treatment assigned by the investigator and were recorded from the first dose of pacritinib until 30 days after the last dose. Bone marrow biopsy and/or aspirate samples were drawn at baseline, on day 1 of cycle 4 and cycle 10, as clinically indicated, and at the termination visit. Disease response and progression were determined using the relevant International Working Group (IWG) criteria.
The efficacy-evaluable population included those patients with a baseline and corresponding follow-up value. The safety population included all enrolled patients who received ≥1 dose of pacritinib.

## C1=C/COCc2cc(ccc2OCCN2CCCC2)Nc2nccc(n2)-c2cccc(c2)COC/1 [pacritinib, 11-(2-pyrrolidin-1-yl-ethoxy)-14,19-dioxa-5,7,26-triaza-tetracyclo[19.3.1.1(2,6). 1(8,12)]heptacosa-1(25),2(26),3,5,8,10,12(27),16,21,23-decaene]
[1]; phase 1
  Dose–response correlation of clinical benefit: No clear dose–response correlation was observed
[1]; phase 1, n = 43
  Overall clinical benefit rate: 86.0%
  Patients achieving clinical improvement: 13 patients
  Patients having stable disease: 24 patients
[1]; phase 1, patients with AML (3/7)
  Clinical benefit rate: 42.9%
[1]; phase 1, patients with MF (34/36)
  Clinical benefit rate: 94.4%
[2]; phase 2
  Relation of deaths to pacritinib: None of the deaths were considered related to pacritinib
  SAEs considered related to pacritinib: two
[2]; phase 2, n = 31
  Gastrointestinal toxicities: reported by all patients
  Grade 3/4 AE: anemia: 5 n
  Grade 3/4 AE: bone pain: 4 n
  Grade 3/4 AE: diarrhea: 5 n
  Grade 3/4 AE: fatigue: 5 n
  Grade 3 or 4 thrombocytopenia: three
  Grade 3 treatment-related AEs: 22.6%
  Grade 4 treatment-related AEs: No grade 4/5 treatment-related AEs were reported
  Leukopenia, neutropenia, lymphopenia: No leukopenia, neutropenia, or lymphopenia was reported
  Patients who discontinued pacritinib because of an AE: 9.7%
  Patients with SAEs: 41.9%
  Patients with at least one grade 3/4 AE: 71.0%
  Patients with dose interruptions because of AEs: Fourteen
  Patients with dose reductions because of AEs: 14 patients
  Treatment-related AE: diarrhea: 90.3%
  Treatment-related AE: fatigue: 12.9%
  Treatment-related AE: nausea: 48.4%
  Treatment-related AE: vomiting: 29.0%
[2]; phase 2, n = 31, Any grade
  Treatment-emergent AE: Abdominal pain: 9 (29.0) n (%)
  Treatment-emergent AE: Anemia: 6 (19.4) n (%)
  Treatment-emergent AE: Asthenia: 5 (16.1) n (%)
  Treatment-emergent AE: Bone pain: 6 (19.4) n (%)
  Treatment-emergent AE: Cardiac murmur: 4 (12.9) n (%)
  Treatment-emergent AE: Constipation: 5 (16.1) n (%)
  Treatment-emergent AE: Diarrhea: 28 (90.3) n (%)
  Treatment-emergent AE: Dyspnea: 5 (16.1) n (%)
  Treatment-emergent AE: Edema peripheral: 12 (38.7) n (%)
  Treatment-emergent AE: Fatigue: 18 (58.1) n (%)
  Treatment-emergent AE: Hyperuricemia: 4 (12.9) n (%)
  Treatment-emergent AE: Insomnia: 9 (29.0) n (%)
  Treatment-emergent AE: Nausea: 16 (51.6) n (%)
  Treatment-emergent AE: Night sweats: 7 (22.6) n (%)
  Treatment-emergent AE: Pain in extremity: 8 (25.8) n (%)
  Treatment-emergent AE: Pruritus: 9 (29.0) n (%)
  Treatment-emergent AE: Pyrexia: 4 (12.9) n (%)
  Treatment-emergent AE: Rash: 4 (12.9) n (%)
  Treatment-emergent AE: Upper respiratory tract infection: 4 (12.9) n (%)
  Treatment-emergent AE: Vomiting: 11 (35.5) n (%)
  Treatment-emergent AE: Weight decreased: 4 (12.9) n (%)
[2]; phase 2, n = 31, Grade 1
  Treatment-emergent AE: Abdominal pain: 3 (9.7) n (%)
  Treatment-emergent AE: Anemia: 0 n (%)
  Treatment-emergent AE: Asthenia: 4 (12.9) n (%)
  Treatment-emergent AE: Bone pain: 1 (3.2) n (%)
  Treatment-emergent AE: Cardiac murmur: 0 n (%)
  Treatment-emergent AE: Constipation: 5 (16.1) n (%)
  Treatment-emergent AE: Diarrhea: 14 (45.2) n (%)
  Treatment-emergent AE: Dyspnea: 4 (12.9) n (%)
  Treatment-emergent AE: Edema peripheral: 6 (19.4) n (%)
  Treatment-emergent AE: Fatigue: 2 (6.5) n (%)
  Treatment-emergent AE: Hyperuricemia: 2 (6.5) n (%)
  Treatment-emergent AE: Insomnia: 7 (22.6) n (%)
  Treatment-emergent AE: Nausea: 9 (29.0) n (%)
  Treatment-emergent AE: Night sweats: 4 (12.9) n (%)
  Treatment-emergent AE: Pain in extremity: 5 (16.1) n (%)
  Treatment-emergent AE: Pruritus: 4 (12.9) n (%)
  Treatment-emergent AE: Pyrexia: 4 (12.9) n (%)
  Treatment-emergent AE: Rash: 2 (6.5) n (%)
  Treatment-emergent AE: Upper respiratory tract infection: 3 (9.7) n (%)
  Treatment-emergent AE: Vomiting: 7 (22.6) n (%)
  Treatment-emergent AE: Weight decreased: 4 (12.9) n (%)
[2]; phase 2, n = 31, Grade 2
  Treatment-emergent AE: Abdominal pain: 3 (9.7) n (%)
  Treatment-emergent AE: Anemia: 1 (3.2) n (%)
  Treatment-emergent AE: Asthenia: 1 (3.2) n (%)
  Treatment-emergent AE: Bone pain: 1 (3.2) n (%)
  Treatment-emergent AE: Cardiac murmur: 4 (12.9) n (%)
  Treatment-emergent AE: Constipation: 0 n (%)
  Treatment-emergent AE: Diarrhea: 9 (29.0) n (%)
  Treatment-emergent AE: Dyspnea: 0 n (%)
  Treatment-emergent AE: Edema peripheral: 5 (16.1) n (%)
  Treatment-emergent AE: Fatigue: 11 (35.5) n (%)
  Treatment-emergent AE: Hyperuricemia: 0 n (%)
  Treatment-emergent AE: Insomnia: 2 (6.5) n (%)
  Treatment-emergent AE: Nausea: 6 (19.4) n (%)
  Treatment-emergent AE: Night sweats: 3 (9.7) n (%)
  Treatment-emergent AE: Pain in extremity: 2 (6.5) n (%)
  Treatment-emergent AE: Pruritus: 4 (12.9) n (%)
  Treatment-emergent AE: Pyrexia: 0 n (%)
  Treatment-emergent AE: Rash: 1 (3.2) n (%)
  Treatment-emergent AE: Upper respiratory tract infection: 1 (3.2) n (%)
  Treatment-emergent AE: Vomiting: 3 (9.7) n (%)
  Treatment-emergent AE: Weight decreased: 0 n (%)
[2]; phase 2, n = 31, Grade 3
  Treatment-emergent AE: Abdominal pain: 3 (9.7) n (%)
  Treatment-emergent AE: Anemia: 3 (9.7) n (%)
  Treatment-emergent AE: Asthenia: 0 n (%)
  Treatment-emergent AE: Bone pain: 4 (12.9) n (%)
  Treatment-emergent AE: Cardiac murmur: 0 n (%)
  Treatment-emergent AE: Constipation: 0 n (%)
  Treatment-emergent AE: Diarrhea: 5 (16.1) n (%)
  Treatment-emergent AE: Dyspnea: 1 (3.2) n (%)
  Treatment-emergent AE: Edema peripheral: 1 (3.2) n (%)
  Treatment-emergent AE: Fatigue: 4 (12.9) n (%)
  Treatment-emergent AE: Hyperuricemia: 0 n (%)
  Treatment-emergent AE: Insomnia: 0 n (%)
  Treatment-emergent AE: Nausea: 1 (3.2) n (%)
  Treatment-emergent AE: Night sweats: 0 n (%)
  Treatment-emergent AE: Pain in extremity: 0 n (%)
  Treatment-emergent AE: Pruritus: 1 (3.2) n (%)
  Treatment-emergent AE: Pyrexia: 0 n (%)
  Treatment-emergent AE: Rash: 1 (3.2) n (%)
  Treatment-emergent AE: Upper respiratory tract infection: 0 n (%)
  Treatment-emergent AE: Vomiting: 1 (3.2) n (%)
  Treatment-emergent AE: Weight decreased: 0 n (%)
[2]; phase 2, n = 31, Grade 4
  Treatment-emergent AE: Abdominal pain: 0 n (%)
  Treatment-emergent AE: Anemia: 2 (6.5) n (%)
  Treatment-emergent AE: Asthenia: 0 n (%)
  Treatment-emergent AE: Bone pain: 0 n (%)
  Treatment-emergent AE: Cardiac murmur: 0 n (%)
  Treatment-emergent AE: Constipation: 0 n (%)
  Treatment-emergent AE: Diarrhea: 0 n (%)
  Treatment-emergent AE: Dyspnea: 0 n (%)
  Treatment-emergent AE: Edema peripheral: 0 n (%)
  Treatment-emergent AE: Fatigue: 1 (3.2) n (%)
  Treatment-emergent AE: Hyperuricemia: 2 (6.5) n (%)
  Treatment-emergent AE: Insomnia: 0 n (%)
  Treatment-emergent AE: Nausea: 0 n (%)
  Treatment-emergent AE: Night sweats: 0 n (%)
  Treatment-emergent AE: Pain in extremity: 1 (3.2) n (%)
  Treatment-emergent AE: Pruritus: 0 n (%)
  Treatment-emergent AE: Pyrexia: 0 n (%)
  Treatment-emergent AE: Rash: 0 n (%)
  Treatment-emergent AE: Upper respiratory tract infection: 0 n (%)
  Treatment-emergent AE: Vomiting: 0 n (%)
  Treatment-emergent AE: Weight decreased: 0 n (%)
[2]; phase 2, of 33 enrolled
  Patients who died: 27.3%
